The values below are quoted from earlier work in patent US20160194352A1, “AMORPHOUS FORMS OF DACLATASVIR DIHYDROCHLORIDE” (Dr.Reddy's Laboratories Ltd., priority 2015, published 2016).

The series has as its system HCV. The conditions noted are these: HCV infected patients, combination therapy.

With alpha-interferon and ribavirin, the “sustained efficacy, share of patients” value is 40% of patients.
